Test results from patent US7125990B2, “Imidazolyl derivatives as corticotropin releasing factor inhibitors” (Bristol-Myers Squibb COmpany, priority 2001, dated 2006).

Target: T1, CRF1 receptors (Homo sapiens, UniProt P34998)
T1 construct: endogenous in cells; host or cells: IMR-32 cells, transformed with 2.5 µM 5'-bromo-2'-deoxyuridine for 10 days; membrane preparation
T1 sequence (P34998 24-415): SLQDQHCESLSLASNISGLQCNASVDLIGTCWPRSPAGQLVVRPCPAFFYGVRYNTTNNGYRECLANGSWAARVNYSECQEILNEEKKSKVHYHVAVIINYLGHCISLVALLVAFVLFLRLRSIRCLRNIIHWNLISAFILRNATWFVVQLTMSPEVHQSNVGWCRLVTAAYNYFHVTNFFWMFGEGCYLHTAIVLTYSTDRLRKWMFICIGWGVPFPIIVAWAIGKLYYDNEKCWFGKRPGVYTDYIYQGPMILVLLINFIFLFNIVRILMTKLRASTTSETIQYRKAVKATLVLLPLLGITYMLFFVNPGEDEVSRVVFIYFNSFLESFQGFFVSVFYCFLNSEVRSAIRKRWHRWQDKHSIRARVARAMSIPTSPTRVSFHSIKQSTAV
Experiment: CRF1 receptor radioligand binding assay ([125I]-oCRF competition, IMR-32 cell membranes)
Conditions: IMR-32 cell membranes, [125I]-oCRF 100 pM; read-out: Ki (CRF-1R)
Method in brief: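 Buffer: Tris pH 7.2 with MgCl2, BSA, Triton X-100, aprotinin, leupeptin; reaction stopped with ice-cold wash and filtered. Nonspecific binding set with 10 μM oCRF.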

Structure (SMILES)	Ki
Cc1cc(C)c(-n2c3ncccc3n3c(CN(CC4CC4)CC(F)(F)F)c(C(F)(F)F)nc23)c(C)c1 [Example 210, Cyclopropylmethyl-(2,2,2-trifluoro-ethyl)-[2-trifluoromethyl-8-(2,4,6-trimethyl-phenyl)-8H-1,3a,7,8-tetraaza-cyclopenta[α]inden-3-ylmethyl]-amine]	< 100 nM
Cc1cc(C)c(-n2c3ncccc3n3c(CN(CC4CC4)CC(F)(F)C(F)(F)F)c(C(F)(F)F)nc23)c(C)c1 [Example 212, Cyclopropylmethyl-(2,2,3,3,3-pentafluoro-propyl)-[2-trifluoromethyl-8-(2,4,6-trimethyl-phenyl)-8H-1,3a,7,8-tetraaza-cylopenta[α]inden-3-ylmethyl]-amine]	< 100 nM
Cc1cc(C)c(-n2c3ncccc3n3c(CN(CCC(F)(F)F)CC4CC4)c(C(F)(F)F)nc23)c(C)c1 [Example 213, Cyclopropylmethyl-[2-trifluoromethyl-8-(2,4,6-trimethyl-phenyl)-8H-1,3a,7,8-tetraaza-cyclopenta[α]inden-3-ylmethyl]-(3,3,3-trifluoro-propyl)-amine]	< 100 nM
Cc1cc(C)c(-n2c3ncccc3n3c(CN(CC4CC4)CC4CC4)c(C(F)(F)F)nc23)c(C)c1 [Example 214, Bis-cyclopropylmethyl-[2-trifluoromethyl-8-(2,4,6-trimethyl-phenyl)-8H-1,3a,7,8-tetraaza-cyclopenta[α]inden-3-ylmethyl]-amine]	< 100 nM
CCCN(Cc1c(C(F)(F)F)nc2n(-c3c(C)cc(C)cc3C)c3ncccc3n12)CC1CCC1 [Example 215, Cyclobutylmethyl-propyl-[2-trifluoromethyl-8-(2,4,6-trimethyl-phenyl)-8H-1,3a,7,8-tetraaza-cyclopenta[α]inden-3-ylmethyl]-amine]	< 100 nM
Cc1cc(C)c(-n2c3ncccc3n3c(CN(CC4CCC4)CC(F)(F)F)c(C(F)(F)F)nc23)c(C)c1 [Example 216, Cyclobutylmethyl-(2,2,2-trifluoro-ethyl)-[2-trifluoromethyl-8-(2,4,6-trimethyl-phenyl)-8H-1,3a,7,8-tetraaza-cyclopenta[α]inden-3-ylmethyl]-amine]	< 100 nM
CCCN(CCc1ccccc1)Cc1c(C(F)(F)F)nc2n(-c3c(C)cc(C)cc3C)c3ncccc3n12 [Example 217, Phenethyl-propyl-[2-trifluoromethyl-8-(2,4,6-trimethyl-phenyl)-8H-1,3a,7,8-tetraaza-cyclopenta[α]inden-3-ylmethyl]-amine]	< 100 nM
CCN(CCc1ccccc1)Cc1c(C(F)(F)F)nc2n(-c3c(C)cc(C)cc3C)c3ncccc3n12 [Example 218, Ethyl-phenethyl-[2-trifluoromethyl-8-(2,4,6-trimethyl-phenyl)-8H-1,3a,7,8-tetraaza-cyclopenta[α]inden-3-ylmethyl]-amine]	< 1000 nM
C=CCN(CC=C)Cc1c(C(F)(F)F)nc2n(-c3c(C)cc(C)cc3C)c3ncccc3n12 [Example 219, Diallyl-[2-trifluoromethyl-8-(2,4,6-trimethyl-phenyl)-8H-1,3a,7,8-tetraaza-cyclopenta[α]inden-3-ylmethyl]-amine]	< 1000 nM
C=CCN(CCC)Cc1c(C(F)(F)F)nc2n(-c3c(C)cc(C)cc3C)c3ncccc3n12 [Example 220, Allyl-propyl-[2-trifluoromethyl-8-(2,4,6-trimethyl-phenyl)-8H-1,3a,7,8-tetraaza-cyclopenta[α]inden-3-ylmethyl]-amine]	< 1000 nM
CCCN(CCC(F)(F)F)Cc1c(C(F)(F)F)nc2n(-c3c(C)cc(C)cc3C)c3ncccc3n12 [Example 221, Propyl-[2-trifluoromethyl-8-(2,4,6-trimethyl-phenyl)-8H-1,3a,7,8-tetraaza-cyclopenta[α]inden-3-ylmethyl]-(3,3,3-trifluoro-propyl)-amine]	< 1000 nM
CCCN(Cc1c(C(F)(F)F)nc2n(-c3c(C)cc(C)cc3C)c3ncccc3n12)CC(F)(F)F [Example 222, Propyl-(2,2,2-trifluoro-ethyl)-[2-trifluoromethyl-8-(2,4,6-trimethyl-phenyl)-8H-1,3a,7,8-tetraaza-cyclopenta[α]inden-3-ylmethyl]-amine]	< 1000 nM
CCN(Cc1c(C(F)(F)F)nc2n(-c3c(C)cc(C)cc3C)c3ncccc3n12)CC1CC1 [Example 223, Cyclopropylmethyl-ethyl-[2-trifluoromethyl-8-(2,4,6-trimethyl-phenyl)-8H-1,3a,7,8-tetraaza-cyclopenta[α]inden-3-ylmethyl]-amine]	< 1000 nM
CCCN(Cc1c(C(F)(F)F)nc2n(-c3c(C)cc(C)cc3C)c3ncccc3n12)CC(F)(F)C(F)(F)F [Example 224, (2,2,3,3,3-Pentafluoro-propyl)-propyl-[2-trifluoromethyl-8-(2,4,6-trimethyl-phenyl)-8H-1,3a,7,8-tetraaza-cyclopenta[α]inden-3-ylmethyl]-amine]	< 1000 nM
Cc1cc(C)c(-n2c3ncccc3n3c(CN(CCC4CC4)CCC(F)(F)F)c(C(F)(F)F)nc23)c(C)c1 [Example 225, (2-Cyclopropyl-ethyl)-[2-trifluoromethyl-8-(2,4,6-trimethyl-phenyl)-8H-1,3a,7,8-tetraaza-cyclopenta[α]inden-3-ylmethyl]-(3,3,3-trifluoro-propyl)-amine]	< 1000 nM
Cc1cc(C)c(-n2c3ncccc3n3c(CN(CCc4ccccc4)CCC(F)(F)F)c(C(F)(F)F)nc23)c(C)c1 [Example 226, Phenethyl-[2-trifluoromethyl-8-(2,4,6-trimethyl-phenyl)-8H-1,3a,7,8-tetraaza-cyclopenta[a]inden-3-ylmethyl]-(3,3,3-trifluoro-propyl)-amine]	< 1000 nM
Cc1cc(C)c(-n2c3ncccc3n3c(CN(CCC(F)(F)F)Cc4ccccc4)c(C(F)(F)F)nc23)c(C)c1 [Example 227, Benzyl-[2-trifluoromethyl-8-(2,4,6-trimethyl-phenyl)-8H-1,3a,7,8-tetraaza-cyclopenta[α]inden-3-ylmethyl]-(3,3,3-trifluoro-propyl)-amine]	< 1000 nM
Cc1cc(C)c(-n2c3ncccc3n3c(CN(C)Cc4ccccc4)c(C(F)(F)F)nc23)c(C)c1 [Example 228, Benzyl-methyl-[2-trifluoromethyl-8-(2,4,6-trimethyl-phenyl)-8H-1,3a,7,8-tetraaza-cyclopenta[α]inden-3-ylmethyl]-amine]	< 1000 nM
CCN(CCC1CC1)Cc1c(C(F)(F)F)nc2n(-c3c(C)cc(C)cc3C)c3ncccc3n12 [Example 229, (2-Cyclopropyl-ethyl)-ethyl-[2-trifluoromethyl-8-(2,4,6-trimethyl-phenyl)-8H-1,3a,7,8-tetraaza-cyclopenta[α]inden-3-ylmethyl]-amine]	< 1000 nM
CCCN(CCC1CC1)Cc1c(C(F)(F)F)nc2n(-c3c(C)cc(C)cc3C)c3ncccc3n12 [Example 230, (2-Cyclopropyl-ethyl)-propyl-[2-trifluoromethyl-8-(2,4,6-trimethyl-phenyl)-8H-1,3a,7,8-tetraaza-cyclopenta[α]inden-3-ylmethyl]-amine]	< 1000 nM
CCCCN(CC)Cc1c(C(F)(F)F)nc2n(-c3c(C)cc(C)cc3C)c3ncccc3n12 [Example 231, Butyl-ethyl-[2-trifluoromethyl-8-(2,4,6-trimethyl-phenyl)-8H-1,3a,7,8-tetraaza-cyclopenta[α]inden-3-ylmethyl]-amine]	< 1000 nM
Cc1cc(C)c(-n2c3ncccc3n3c(CN(CCC4CC4)CC(F)(F)F)c(C(F)(F)F)nc23)c(C)c1 [Example 232, (2-Cyclopropyl-ethyl)-(2,2,2-trifluoro-ethyl)-[2-trifluoromethyl-8-(2,4,6-trimethyl-phenyl)-8H-1,3a,7,8-tetraaza-cyclopenta[α]inden-3-ylmethyl]-amine]	< 1000 nM
CCN(Cc1ccccc1)Cc1c(C(F)(F)F)nc2n(-c3c(C)cc(C)cc3C)c3ncccc3n12 [Example 233, Benzyl-ethyl-[2-trifluoromethyl-8-(2,4,6-trimethyl-phenyl)-8H-1,3a,7,8-tetraaza-cyclopenta[α]inden-3-ylmethyl]-amine]	< 10000 nM
Cc1cc(C)c(-n2c3ncccc3n3c(CN(CCc4ccccc4)CC(F)(F)F)c(C(F)(F)F)nc23)c(C)c1 [Example 234, Phenethyl-(2,2,2-trifluoro-ethyl)-[2-trifluoromethyl-8-(2,4,6-trimethyl-phenyl)-8H-1,3a,7,8-tetraaza-cyclopenta[α]inden-3-ylmethyl]-amine]	< 10000 nM
CCCCN(Cc1ccccc1)Cc1c(C(F)(F)F)nc2n(-c3c(C)cc(C)cc3C)c3ncccc3n12 [Example 235, Benzyl-butyl-[2-trifluoromethyl-8-(2,4,6-trimethyl-phenyl)-8H-1,3a,7,8-tetraaza-cyclopenta[α]inden-3-ylmethyl]-a mine]	< 10000 nM
CCCN(Cc1ccccc1)Cc1c(C(F)(F)F)nc2n(-c3c(C)cc(C)cc3C)c3ncccc3n12 [Example 236, Benzyl-propyl-[2-trifluoromethyl-8-(2,4,6-trimethyl-phenyl)-8H-1,3a,7,8-tetraaza-cyclopenta[α]inden-3-ylmethyl]-amine]	< 10000 nM
CCc1nc2n(-c3c(C)cc(C)cc3C)c3ncccc3n2c1CN(CC1CC1)CC1CC1 [Example 246, Bis-cyclopropylmethyl-[2-ethyl-8-(2,4,6-trimethyl-phenyl)-8H-1,3a,7,8-tetraaza-cyclopenta[α]inden-3-ylmethyl]-amine]	< 100 nM
